Results from patent US9447100B2, “Substituted pyrazolo[1,5-A] pyrimidines as calcium receptor modulating agents” (Takeda Pharmaceutical Company Limited, priority 2002, dated 2016).
Counter-ions that a name gives are not always drawn.

Row | melting point | SMILES
1 | 194 to 195 °C | CCC(CC)(NC(=O)c1cnn2c1NC(c1ccccc1)CC2(C)C)c1ccc(CCCO)cc1 (stereo not shown) [Example 763, N-(1-ethyl-1-(4-(3-hydroxy-propyl)phenyl)propyl)-7,7-dimethyl-5-phenyl-4,5,6,7-tetrahydropyrazolo[1,5-a]pyrimidine-3-carboxamide]
2 | 105 to 109 °C | CCOC(=O)c1cnn2c1NC(c1ccc(OC)cc1)CC2C(F)(F)F (stereo not shown) [Example 3, ethyl 5-(4-methoxyphenyl)-7-(trifluoromethyl)-4,5,6,7-tetrahydropyrazolo[1,5-a]pyrimidine-3-carboxylate]
3 | 143 to 145 °C | O=C(O)c1cnn2c1NC(c1ccc3ccccc3c1)CC2C(F)(F)F (stereo not shown) [Example 22, 5-(2-naphthyl)-7-(trifluoromethyl)-4,5,6,7-tetrahydropyrazolo[1,5-a]pyrimidine-3-carboxylic acid]
4 | 137 to 138 °C | CCC(CC)(NC(=O)c1cnn2c1NC(c1ccccc1)CC2(C)C)c1ccc(C)c(C)c1 (stereo not shown) (as salt: HCl) [Example 769, N-(1-(3,4-dimethylphenyl)-1-ethylpropyl)-7,7-dimethyl-5-phenyl-4,5,6,7-tetrahydropyrazolo[1,5-a]pyrimidine-3-carboxamide]
5 | 174 to 175 °C | CCC(CC)(c1ccccc1)c1nnc(-c2c(C)nn3c2N[C@@H](c2ccccc2)CC3(C)C)s1 [Example 1145, (5R)-3-(5-(1-ethyl-1-phenylpropyl)-1,3,4-thiadiazol-2-yl)-2,7,7-trimethyl-5-phenyl-4,5,6,7-tetrahydropyrazolo[1,5-a]pyrimidine]
6 | 155 to 156 °C | CCC(CC)(NC(=O)c1cnn2c1NC(c1ccccc1)CC2(C)C)C(C)C (stereo not shown) [Example 620, N-(1,1-diethyl-2-methylpropyl)-7,7-dimethyl-5-phenyl-4,5,6,7-tetrahydropyrazolo[1,5-a]pyrimidine-3-carboxamide]
7 | 122 to 124 °C | CCC1(CC)C[C@H](OC)CN1C(=O)c1cnn2c1N[C@@H](c1ccccc1)CC2(C)C [Example 1113, (5R)-3-(((4S)-2,2-diethyl-4-methoxy-1-pyrrolidinyl)carbonyl)-7,7-dimethyl-5-phenyl-4,5,6,7-tetrahydropyrazolo[1,5-a]pyrimidine]
8 | 211 to 213 °C | CCC(CC)(NC(=O)c1cnn2c1NC(c1ccccc1OC)CC2(C)C)c1ccc(C(F)(F)F)cc1 (stereo not shown) [Example 590, N-(1-ethyl-1-(4-(trifluoromethyl)phenyl)propyl)-5-(2-methoxyphenyl)-7,7-dimethyl-4,5,6,7-tetrahydropyrazolo[1,5-a]pyrimidine-3-carboxamide]
9 | 167 to 169 °C | CCC(CC)(NC(=O)c1cnn2c1NC(c1ccccn1)CC2(C)C)c1ccc(F)cc1 (stereo not shown) [Example 601, N-(1-ethyl-1-(4-fluorophenyl)propyl)-7,7-dimethyl-5-(2-pyridinyl)-4,5,6,7-tetrahydropyrazolo[1,5-a]pyrimidine-3-carboxamide]
10 | 181 to 182 °C | Cc1ccc(C2CC(C)(C)n3nc(C)c(C(=O)O)c3N2)cc1 (stereo not shown) [Example 949, 2,7,7-trimethyl-5-(4-methylphenyl)-4,5,6,7-tetrahydropyrazolo[1,5-a]pyrimidine-3-carboxylic acid]
11 | 143 to 144 °C | CCCCOC(=O)CCc1ccc(C(CC)(CC)NC(=O)c2cnn3c2NC(c2ccccc2)CC3(C)C)cc1 (stereo not shown) (as salt: HCl) [Example 815, butyl 3-(4-(1-(((7,7-dimethyl-5-phenyl-4,5,6,7-tetrahydropyrazolo[1,5-a]pyrimidin-3-yl)carbonyl)amino)-1-ethyl-propyl)phenyl)propanoate]
12 | 244 to 246 °C | CCC(CC)(NC(=O)c1c(C)nn2c1NC(c1ccccc1)CC2(C)C)c1ccc(C(=O)O)cc1 (stereo not shown) [Example 979, 4-(1-ethyl-1-(((2,7,7-trimethyl-5-phenyl-4,5,6,7-tetrahydropyrazolo[1,5-a]pyrimidin-3-yl)carbonyl)amino)propyl) benzoic acid]
13 | 76 to 77 °C | CCCC(CC)(CC)NC(=O)c1cnn2c1NC(c1ccccc1)CC2(C)C (stereo not shown) [Example 646, N-(1,1-diethylbutyl)-7,7-dimethyl-5-phenyl-4,5,6,7-tetrahydropyrazolo[1,5-a]pyrimidine-3-carboxamide]
14 | 125 to 126 °C | CCOC(=O)c1ccc(C(CC)(CC)NC(=O)c2c(C)nn3c2N[C@@H](c2ccccc2)CC3(C)C)cc1 (as salt: HCl) [Example 1074, (5R)-ethyl 4-(1-ethyl-1-(((2,7,7-trimethyl-5-phenyl-4,5,6,7-tetrahydropyrazolo[1,5-a]pyrimidin-3-yl)carbonyl)amino)propyl) benzoate]
15 | 180 to 181 °C | CCC(CC)(NC(=O)c1cnn2c1NC(c1ccccc1)CC2(C)C)c1ccc(C(=O)OC)cc1 (stereo not shown) [Example 678, methyl 4-(1-(((7,7-dimethyl-5-phenyl-4,5,6,7-tetrahydropyrazolo[1,5-a]pyrimidin-3-yl)carbonyl)amino)-1-ethylpropyl)benzoate]
16 | 213 to 214 °C | CCC1(CC)CC(c2ccccc2)Nc2c(C(=O)NC34CC5CC(CC(C5)C3)C4)cnn21 (stereo not shown)

Row | melting point | SMILES
17 | 186 to 187 °C | Cc1nn2c(c1C(=O)O)NC(c1cccs1)CC2(C)C (stereo not shown) [Example 951, 2,7,7-trimethyl-5-(2-thienyl)-4,5,6,7-tetrahydropyrazolo[1,5-a]pyrimidine-3-carboxylic acid]
18 | 187 to 188 °C | CC(C)(Cc1ccc2ccccc2c1)NC(=O)c1cnn2c1NC(c1ccccc1)CC2C(F)(F)F (stereo not shown) [Example 272, N-(1,1-dimethyl-2-(2-naphthyl)ethyl)-5-phenyl-7-(trifluoromethyl)-4,5,6,7-tetrahydropyrazolo[1,5-a]pyrimidine-3-carboxamide]
19 | 150 to 151 °C | Cc1ccc(C(C)(C)NC(=O)c2cnn3c2NC(c2ccccc2)CC3(C)C)cc1 (stereo not shown) (as salt: HCl) [Example 793, 7,7-dimethyl-N-(1-methyl-1-(4-methylphenyl)ethyl)-5-phenyl-4,5,6,7-tetrahydropyrazolo[1,5-a]pyrimidine-3-carboxamide]
20 | 180 to 181 °C | CCC(CC)(NC(=O)c1c(C)nn2c1NC(c1ccccc1)CC2(C)C)c1ccc(Cl)cc1 (stereo not shown) (as salt: HCl) [Example 723, N-(1-(4-chlorophenyl)-1-ethylpropyl)-2,7,7-trimethyl-5-phenyl-4,5,6,7-tetrahydropyrazolo[1,5-a]pyrimidine-3-carboxamide]
21 | 160 to 162 °C | CCC(CC)(NC(=O)c1c(C)nn2c1NC(c1ccccc1F)CC2(C)C)c1ccccc1 (stereo not shown) (as salt: HCl) [Example 840, N-(1-ethyl-1-phenylpropyl)-5-(2-fluorophenyl)-2,7,7-trimethyl-4,5,6,7-tetrahydropyrazolo[1,5-a]pyrimidine-3-carboxamide]
22 | 146 to 147 °C | CC1(C)CC(c2ccccc2)Nc2c(C(=O)NC(c3ccc(C(F)(F)F)cc3)(C3CCCCC3)C3CCCCC3)cnn21 (stereo not shown) [Example 412, N-(dicyclohexyl(4-(trifluoromethyl)phenyl)methyl)-7,7-dimethyl-5-phenyl-4,5,6,7-tetrahydropyrazolo[1,5-a]pyrimidine-3-carboxamide]
23 | 178 to 179 °C | CCOC(=O)COc1ccc(C(CC)(CC)NC(=O)c2cnn3c2NC(c2ccccc2)CC3(C)C)cc1 (stereo not shown) [Example 730, ethyl (4-(1-(((7,7-dimethyl-5-phenyl-4,5,6,7-tetrahydropyrazolo[1,5-a]pyrimidin-3-yl)carbonyl)amino)-1-ethylpropyl)phenoxy)acetate]
24 | 94 to 95 °C | CC(NC(=O)c1cnn2c1NC(c1ccc3ccccc3c1)CC2C(F)(F)F)C1C2CC3CC(C2)CC1C3 (stereo not shown) [Example 91, N-(1-(2-adamantyl)ethyl)-5-(2-naphthyl)-7-(trifluoromethyl)-4,5,6,7-tetrahydropyrazolo[1,5-a]pyrimidine-3-carboxamide]
25 | 146 to 147 °C | CCC(CC)(NC(=O)c1c(C)nn2c1NC(c1ccccc1)CC2(C)C)c1ccc(CO)cc1 (stereo not shown) [Example 955, N-(1-ethyl-1-(4-(hydroxy-methyl)phenyl)propyl)-2,7,7-trimethyl-5-phenyl-4,5,6,7-tetrahydropyrazolo[1,5-a]pyrimidine-3-carboxamide]
26 | 135 to 136 °C | CCOC(=O)CCc1ccc(C(CC)(CC)NC(=O)c2cnn3c2NC(c2ccccc2)CC3(C)C)cc1 (stereo not shown) [Example 759, ethyl 3-(4-(1-(((7,7-dimethyl-5-phenyl-4,5,6,7-tetrahydropyrazolo[1,5-a]pyrimidin-3-yl)carbonyl)amino)-1-ethylpropyl)phenyl)propanoate]
27 | 180 to 181 °C | CCC(C#N)NC(=O)c1cnn2c1N[C@H](c1ccccc1)C[C@@H]2C(F)(F)F (stereo in doubt) [Example 283, N-(1-cyanopropyl)-5-phenyl-7-(trifluoromethyl)-4,5,6,7-tetrahydropyrazolo[1,5-a]pyrimidine-3-carboxamide]
28 | 153 to 154 °C | CCC(CC)(NC(=O)c1c(C)nn2c1NC(c1ccc(OC)cc1)CC2(C)C)c1ccc(C)cc1 (stereo not shown) (as salt: HCl) [Example 967, N-(1-ethyl-1-(4-methylphenyl)propyl)-5-(4-methoxyphenyl)-2,7,7-trimethyl-4,5,6,7-tetrahydropyrazolo[1,5-a]pyrimidine-3-carboxamide]
29 | 185 to 186 °C | CCCC(CC)(CC)NC(=O)c1cnn2c1N[C@@H](c1ccccc1)CC2(C)C (as salt: HCl) [Example 1072, (5R)-N-(1,1-diethylbutyl)-7,7-dimethyl-5-phenyl-4,5,6,7-tetrahydropyrazolo[1,5-a]pyrimidine-3-carboxamide]
30 | 246 to 247 °C | O=C(NC12CC3CC(CC(C3)C1)C2)c1cnn2c1NC(c1cccc(Cl)c1)CC2C(F)(F)F (stereo not shown) [Example 282, N-(1-adamantyl)-5-(3-chlorophenyl)-7-(trifluoromethyl)-4,5,6,7-tetrahydropyrazolo[1,5-a]pyrimidine-3-carboxamide]
31 | 206.2 to 206.3 °C | CCC(CC)(NC(=O)c1cnn2c1NC(c1ccccc1OC)CC2(C)C)c1ccc(F)cc1 (stereo not shown) [Example 600, N-(1-ethyl-1-(4-fluorophenyl)propyl)-5-(2-methoxyphenyl)-7,7-dimethyl-4,5,6,7-tetrahydropyrazolo[1,5-a]pyrimidine-3-carboxamide]
